The source of these data is ChEMBL document CHEMBL5260810, “Inhibition of bromodomain-containing protein 9 for the prevention of epigenetically-defined drug resistance” (Bioorg Med Chem Lett, 2017).

In assay [1] the test system is NCI-H1355. In words: Cytotoxicity against human NCI-H1355 cells measured after 8 days. In kind it is functional, cell-based. Conditions: NCI-H1355, 192 h.
Assay [2] is described as follows: Cytotoxicity against human Ci-1 cells measured after 8 days. In kind it is functional, cell-based. The settings on record: Ci-1, 192 h.
A short description of assay [3]: Cytotoxicity against human EB1 cells measured after 8 days. Conditions: EB1, 192 h. Type of assay: functional, cell-based.
The subject of assay [4] is HT. The experiment in a line: Cytotoxicity against human HT cells measured after 8 days. Type of assay: functional, cell-based. Conditions: 192 h.
The subject of assay [5] is HCC70. The experiment in a line: Cytotoxicity against human HCC70 cells measured after 8 days. In kind it is functional, cell-based. Conditions: HCC70, 192 h.
Assay [6] relates to MDA-MB-157. The experiment in a line: Cytotoxicity against human MDA-MB-157 cells measured after 8 days. Type of assay: functional, cell-based. Conditions: MDA-MB-157, 192 h.
Assay [7] concerns MX1. The experiment in a line: Cytotoxicity against human MX1 cells measured after 8 days. Type of assay: functional, cell-based. The settings on record: MX1, 192 h.
For assay [8], the system named is HCT-15. In words: Cytotoxicity against human HCT-15 cells measured after 8 days. Type of assay: functional, cell-based. Conditions: HCT-15, 192 h.
Assay [9] is described as follows: Cytotoxicity against human 501A cells measured after 8 days. In kind it is functional, cell-based. The settings on record: 192 h.
The test system of assay [10] is NUGC-4. The experiment in a line: Cytotoxicity against human NUGC-4 cells measured after 8 days. Type of assay: functional, cell-based. Conditions: NUGC-4, 192 h.
Assay [11] can be described thus: Cytotoxicity against human OCUM-1 cells measured after 8 days. Type of assay: functional, cell-based. The settings on record: OCUM1, 192 h.
In assay [12] the target is Bromodomain-containing protein 3 (Homo sapiens, UniProt Q15059). The experiment in a line: Binding affinity to human partial length BRD3 bromodomain 1 (P24 to E144 residues) expressed in bacterial expression system by BROMOscan assay.
Sequence of Bromodomain-containing protein 3 (Q15059 whole entry, the tested form may be a part, canonical isoform): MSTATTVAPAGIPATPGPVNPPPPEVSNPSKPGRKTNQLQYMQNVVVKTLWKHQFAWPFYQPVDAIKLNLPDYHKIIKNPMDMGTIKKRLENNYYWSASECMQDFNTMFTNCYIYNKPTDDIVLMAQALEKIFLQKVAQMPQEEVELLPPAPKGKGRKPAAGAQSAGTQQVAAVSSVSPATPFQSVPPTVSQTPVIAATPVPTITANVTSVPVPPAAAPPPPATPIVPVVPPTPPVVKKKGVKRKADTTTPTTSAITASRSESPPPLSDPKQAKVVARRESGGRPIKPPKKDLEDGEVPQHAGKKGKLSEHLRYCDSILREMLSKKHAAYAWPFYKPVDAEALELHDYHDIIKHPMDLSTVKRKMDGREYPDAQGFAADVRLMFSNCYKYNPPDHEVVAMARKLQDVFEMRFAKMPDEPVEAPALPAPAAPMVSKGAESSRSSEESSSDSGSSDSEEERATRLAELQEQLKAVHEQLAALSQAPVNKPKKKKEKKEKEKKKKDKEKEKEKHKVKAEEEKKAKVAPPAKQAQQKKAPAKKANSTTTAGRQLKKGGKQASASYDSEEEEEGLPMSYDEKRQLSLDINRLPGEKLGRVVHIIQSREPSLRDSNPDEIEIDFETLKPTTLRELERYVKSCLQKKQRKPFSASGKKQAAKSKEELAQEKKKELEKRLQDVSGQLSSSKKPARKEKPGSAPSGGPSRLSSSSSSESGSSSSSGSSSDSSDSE
The target in assay [13] is Bromodomain-containing protein 4 (Homo sapiens, UniProt O60885). The experiment in a line: Binding affinity to human partial length BRD4 bromodomain 2 long isoform (K333 to E460 residues) expressed in bacterial expression system by BROMOscan assay.
In assay [14] the target is T1, Peregrin (Homo sapiens, UniProt P55201).
T1 sequence (P55201 whole entry): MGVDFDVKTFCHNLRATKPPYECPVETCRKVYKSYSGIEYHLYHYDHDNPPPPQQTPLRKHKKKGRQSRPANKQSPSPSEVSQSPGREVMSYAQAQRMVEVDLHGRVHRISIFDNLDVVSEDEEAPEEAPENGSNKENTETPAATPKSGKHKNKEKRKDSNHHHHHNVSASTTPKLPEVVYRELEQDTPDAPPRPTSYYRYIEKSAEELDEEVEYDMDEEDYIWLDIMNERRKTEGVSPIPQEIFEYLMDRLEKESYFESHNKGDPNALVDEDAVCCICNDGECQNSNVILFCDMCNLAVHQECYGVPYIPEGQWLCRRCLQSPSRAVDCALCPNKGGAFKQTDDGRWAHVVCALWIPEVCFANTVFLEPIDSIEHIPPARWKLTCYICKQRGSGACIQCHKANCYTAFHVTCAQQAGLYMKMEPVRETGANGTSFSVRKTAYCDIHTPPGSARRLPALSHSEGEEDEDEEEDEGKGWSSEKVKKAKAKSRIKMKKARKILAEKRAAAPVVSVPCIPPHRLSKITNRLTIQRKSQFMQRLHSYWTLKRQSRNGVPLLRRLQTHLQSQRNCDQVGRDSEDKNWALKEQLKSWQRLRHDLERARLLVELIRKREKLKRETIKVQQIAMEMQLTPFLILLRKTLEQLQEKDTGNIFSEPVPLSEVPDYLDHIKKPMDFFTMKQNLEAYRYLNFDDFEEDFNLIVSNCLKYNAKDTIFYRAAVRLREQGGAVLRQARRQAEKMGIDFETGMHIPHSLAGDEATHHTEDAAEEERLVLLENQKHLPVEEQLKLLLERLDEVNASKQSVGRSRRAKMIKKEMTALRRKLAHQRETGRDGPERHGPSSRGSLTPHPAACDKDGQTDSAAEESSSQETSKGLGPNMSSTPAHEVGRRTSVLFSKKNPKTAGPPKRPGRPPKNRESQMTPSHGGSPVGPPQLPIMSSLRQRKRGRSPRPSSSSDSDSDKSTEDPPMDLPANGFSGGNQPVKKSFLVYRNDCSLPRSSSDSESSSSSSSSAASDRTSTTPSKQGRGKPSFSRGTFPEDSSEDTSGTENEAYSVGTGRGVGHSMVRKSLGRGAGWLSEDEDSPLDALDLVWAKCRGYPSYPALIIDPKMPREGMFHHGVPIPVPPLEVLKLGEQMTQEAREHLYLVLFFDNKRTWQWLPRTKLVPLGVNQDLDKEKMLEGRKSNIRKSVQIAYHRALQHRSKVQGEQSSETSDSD
The experiment in a line: Binding affinity to human partial length BRPF1 (E627 to G740 residues) expressed in bacterial expression system by BROMOscan assay.

Assay [15] concerns the target Transcription initiation factor TFIID subunit 1 (Homo sapiens, UniProt P21675). The experiment in a line: Binding affinity to human partial length TAF1 bromodomain 2 (D1521 to D1656 residues) expressed in bacterial expression system by BROMOscan assay.
For assay [16], the target named is T2, Serine/threonine-protein kinase Chk1 (Homo sapiens) (UniProt O14757).
T2 sequence (whole entry): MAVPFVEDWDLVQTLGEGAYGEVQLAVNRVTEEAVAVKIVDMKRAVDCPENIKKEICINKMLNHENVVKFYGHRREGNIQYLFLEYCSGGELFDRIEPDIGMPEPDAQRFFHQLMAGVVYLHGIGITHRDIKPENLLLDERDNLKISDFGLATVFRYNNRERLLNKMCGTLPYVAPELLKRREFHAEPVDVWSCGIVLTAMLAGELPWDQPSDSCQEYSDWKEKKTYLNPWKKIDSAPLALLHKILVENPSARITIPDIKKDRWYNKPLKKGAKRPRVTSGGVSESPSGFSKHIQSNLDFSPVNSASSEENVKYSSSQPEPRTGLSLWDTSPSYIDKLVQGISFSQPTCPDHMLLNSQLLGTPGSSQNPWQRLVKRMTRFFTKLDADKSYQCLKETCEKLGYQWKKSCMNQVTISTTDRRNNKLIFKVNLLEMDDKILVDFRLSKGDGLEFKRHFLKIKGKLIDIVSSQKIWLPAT
In words: Inhibition of CHK1 (unknown origin) at 1 uM relative to control.

For assay [17], the target named is Receptor-type tyrosine-protein kinase FLT3 (Homo sapiens) (UniProt P36888). The experiment in a line: Inhibition of Flt3 (unknown origin) at 1 uM relative to control.
Assay [18] addresses Mitogen-activated protein kinase kinase kinase kinase 4 (Homo sapiens) (UniProt O95819). In words: Inhibition of MAP4K4 (unknown origin) at 1 uM relative to control.
Assay [19] addresses Beta-2 adrenergic receptor (Homo sapiens) (UniProt P07550). In words: Displacement of [3H](-)CGP 12177 from human recombinant beta2 adrenoceptor at 10 uM after 120 mins by scintillation counting analysis relative to control.
Assay [20] deals with D(2) dopamine receptor (Homo sapiens) (UniProt P14416). In words: Displacement of [3H]7-OH-DPAT from human recombinant dopamine D2S receptor at 10 uM after 60 mins by scintillation counting analysis relative to control.
Assay [21] deals with 5-hydroxytryptamine receptor 2B (Homo sapiens) (UniProt P41595). The experiment in a line: Displacement of [125I]+/-DOI from human recombinant 5-HT2B receptor at 10 uM after 60 mins by scintillation counting analysis relative to control.
Sequence of 5-hydroxytryptamine receptor 2B (Homo sapiens) (P41595 whole entry): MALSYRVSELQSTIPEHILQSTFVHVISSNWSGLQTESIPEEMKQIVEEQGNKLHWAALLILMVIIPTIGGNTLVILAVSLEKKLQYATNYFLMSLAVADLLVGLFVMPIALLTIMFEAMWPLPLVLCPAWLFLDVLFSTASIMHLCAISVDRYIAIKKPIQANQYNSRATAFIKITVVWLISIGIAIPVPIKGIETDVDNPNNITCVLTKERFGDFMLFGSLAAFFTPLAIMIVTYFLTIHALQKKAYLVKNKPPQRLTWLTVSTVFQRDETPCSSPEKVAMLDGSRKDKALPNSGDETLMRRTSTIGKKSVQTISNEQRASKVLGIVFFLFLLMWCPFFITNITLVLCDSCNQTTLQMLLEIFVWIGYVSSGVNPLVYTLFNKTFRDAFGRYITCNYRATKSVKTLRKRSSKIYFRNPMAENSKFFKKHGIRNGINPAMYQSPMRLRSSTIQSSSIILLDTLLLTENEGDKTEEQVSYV

Sequence of Mitogen-activated protein kinase kinase kinase kinase 4 (Homo sapiens) (O95819 2-1239 limits assumed): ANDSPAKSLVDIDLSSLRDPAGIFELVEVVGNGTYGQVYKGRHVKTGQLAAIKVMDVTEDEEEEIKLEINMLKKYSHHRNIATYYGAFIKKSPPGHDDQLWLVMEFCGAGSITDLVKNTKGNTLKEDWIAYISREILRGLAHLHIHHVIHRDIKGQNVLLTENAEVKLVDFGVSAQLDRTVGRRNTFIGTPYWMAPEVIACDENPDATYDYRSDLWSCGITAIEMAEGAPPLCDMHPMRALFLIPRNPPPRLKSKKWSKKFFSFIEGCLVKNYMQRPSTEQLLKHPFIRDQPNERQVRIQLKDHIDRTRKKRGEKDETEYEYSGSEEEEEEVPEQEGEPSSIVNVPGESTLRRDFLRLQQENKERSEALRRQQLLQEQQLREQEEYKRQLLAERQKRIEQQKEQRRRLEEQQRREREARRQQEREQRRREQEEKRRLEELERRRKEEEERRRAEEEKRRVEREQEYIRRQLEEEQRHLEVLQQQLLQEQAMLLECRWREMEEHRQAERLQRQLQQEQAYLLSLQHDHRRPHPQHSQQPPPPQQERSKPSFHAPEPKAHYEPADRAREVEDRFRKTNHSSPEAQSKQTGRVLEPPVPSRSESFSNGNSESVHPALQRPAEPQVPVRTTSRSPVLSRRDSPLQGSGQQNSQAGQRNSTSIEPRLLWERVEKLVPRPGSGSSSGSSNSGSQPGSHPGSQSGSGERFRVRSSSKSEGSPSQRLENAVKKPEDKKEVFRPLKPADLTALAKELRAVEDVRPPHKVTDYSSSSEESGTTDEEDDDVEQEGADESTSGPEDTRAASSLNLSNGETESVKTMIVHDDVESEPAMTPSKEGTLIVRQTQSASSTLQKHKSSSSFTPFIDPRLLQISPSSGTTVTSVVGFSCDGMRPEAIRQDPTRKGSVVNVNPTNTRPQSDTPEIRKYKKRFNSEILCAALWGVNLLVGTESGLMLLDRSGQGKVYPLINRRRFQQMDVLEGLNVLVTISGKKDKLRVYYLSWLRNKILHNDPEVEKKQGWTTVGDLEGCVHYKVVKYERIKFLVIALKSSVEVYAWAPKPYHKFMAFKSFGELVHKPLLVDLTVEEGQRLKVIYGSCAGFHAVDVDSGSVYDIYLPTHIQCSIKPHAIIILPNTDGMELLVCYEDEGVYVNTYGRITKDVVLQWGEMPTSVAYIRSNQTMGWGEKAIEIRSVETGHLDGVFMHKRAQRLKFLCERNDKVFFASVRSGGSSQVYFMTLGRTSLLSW
Sequence of Transcription initiation factor TFIID subunit 1 (P21675 whole entry, the tested form may be a part): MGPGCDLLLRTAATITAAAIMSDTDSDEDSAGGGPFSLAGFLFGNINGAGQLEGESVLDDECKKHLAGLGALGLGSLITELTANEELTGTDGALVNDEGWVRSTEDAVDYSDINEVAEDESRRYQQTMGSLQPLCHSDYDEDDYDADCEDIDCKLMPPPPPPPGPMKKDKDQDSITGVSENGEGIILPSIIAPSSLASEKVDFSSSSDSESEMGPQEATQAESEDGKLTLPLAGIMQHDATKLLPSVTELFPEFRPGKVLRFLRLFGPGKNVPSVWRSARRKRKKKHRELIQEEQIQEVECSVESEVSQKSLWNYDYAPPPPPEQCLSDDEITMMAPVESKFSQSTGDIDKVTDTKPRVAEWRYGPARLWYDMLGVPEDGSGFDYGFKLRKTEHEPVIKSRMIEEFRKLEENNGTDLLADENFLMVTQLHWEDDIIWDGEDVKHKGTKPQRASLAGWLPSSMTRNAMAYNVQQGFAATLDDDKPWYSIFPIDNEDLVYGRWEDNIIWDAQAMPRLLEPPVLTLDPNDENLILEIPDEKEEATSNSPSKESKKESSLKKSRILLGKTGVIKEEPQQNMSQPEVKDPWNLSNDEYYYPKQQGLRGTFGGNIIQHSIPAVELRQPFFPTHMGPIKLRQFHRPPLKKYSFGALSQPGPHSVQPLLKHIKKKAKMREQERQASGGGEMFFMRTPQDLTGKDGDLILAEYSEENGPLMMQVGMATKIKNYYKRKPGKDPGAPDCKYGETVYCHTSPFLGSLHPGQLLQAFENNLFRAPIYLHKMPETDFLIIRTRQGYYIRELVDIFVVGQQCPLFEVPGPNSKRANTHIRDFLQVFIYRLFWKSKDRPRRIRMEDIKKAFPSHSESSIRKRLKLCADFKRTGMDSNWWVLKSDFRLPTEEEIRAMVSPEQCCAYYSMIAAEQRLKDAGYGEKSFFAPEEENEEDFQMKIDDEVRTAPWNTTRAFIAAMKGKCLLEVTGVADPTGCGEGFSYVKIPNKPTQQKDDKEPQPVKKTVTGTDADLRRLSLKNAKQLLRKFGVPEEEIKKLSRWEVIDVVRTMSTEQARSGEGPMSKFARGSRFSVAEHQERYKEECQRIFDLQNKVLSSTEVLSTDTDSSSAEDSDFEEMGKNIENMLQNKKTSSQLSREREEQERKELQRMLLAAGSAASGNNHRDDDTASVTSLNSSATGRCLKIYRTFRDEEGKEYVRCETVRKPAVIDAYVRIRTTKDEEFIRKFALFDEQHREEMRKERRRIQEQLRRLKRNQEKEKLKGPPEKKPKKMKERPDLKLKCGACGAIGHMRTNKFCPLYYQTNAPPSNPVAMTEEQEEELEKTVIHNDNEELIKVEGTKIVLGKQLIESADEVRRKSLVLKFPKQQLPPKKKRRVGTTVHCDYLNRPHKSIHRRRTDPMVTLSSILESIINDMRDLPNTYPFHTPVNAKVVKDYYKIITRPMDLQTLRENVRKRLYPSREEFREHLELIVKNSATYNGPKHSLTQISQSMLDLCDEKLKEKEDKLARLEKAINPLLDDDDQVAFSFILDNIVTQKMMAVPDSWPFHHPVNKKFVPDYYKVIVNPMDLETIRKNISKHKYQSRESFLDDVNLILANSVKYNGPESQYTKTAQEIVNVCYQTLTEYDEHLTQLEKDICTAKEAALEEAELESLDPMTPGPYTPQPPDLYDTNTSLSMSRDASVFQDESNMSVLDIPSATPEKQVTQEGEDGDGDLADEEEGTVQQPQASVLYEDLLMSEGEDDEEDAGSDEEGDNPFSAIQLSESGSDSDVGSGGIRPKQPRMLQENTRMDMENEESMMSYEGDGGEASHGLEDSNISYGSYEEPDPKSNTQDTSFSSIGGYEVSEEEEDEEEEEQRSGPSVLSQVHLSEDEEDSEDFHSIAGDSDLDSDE
Sequence of Beta-2 adrenergic receptor (Homo sapiens) (P07550 whole entry, looked up): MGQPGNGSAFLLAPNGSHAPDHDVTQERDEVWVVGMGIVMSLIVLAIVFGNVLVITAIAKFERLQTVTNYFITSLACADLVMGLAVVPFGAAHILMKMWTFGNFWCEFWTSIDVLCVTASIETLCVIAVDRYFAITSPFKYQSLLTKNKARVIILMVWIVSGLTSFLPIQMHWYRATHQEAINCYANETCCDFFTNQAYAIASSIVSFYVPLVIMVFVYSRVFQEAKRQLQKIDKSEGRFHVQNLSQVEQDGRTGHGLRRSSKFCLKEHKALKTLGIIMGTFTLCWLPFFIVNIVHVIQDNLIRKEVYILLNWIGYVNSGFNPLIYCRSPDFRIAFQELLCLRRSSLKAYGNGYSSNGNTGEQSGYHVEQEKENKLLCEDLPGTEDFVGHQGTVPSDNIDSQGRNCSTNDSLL

Consider `C/C=C/Cn1cc(-c2ccc(C(C)(C)O)cc2OC)c2cc[nH]c2c1=O`, for which the IC50 in [1] was found to be 20 µM; in assay [2], 15 µM; in assay [3], 20 µM; in assay [4], 20 µM; in assay [5], 20 µM; in assay [6] it was 20 µM. Besides, the concentration for half-maximal inhibition (IC50) in [7] came to 20 µM; in [8] it was 14.6 µM; in assay [9], 20 µM; in assay [10] it was 20 µM; in assay [11], 20 µM. In addition, the Kd in [12] was 3.2 µM; in [13] it was 3.7 µM; in [14], over 10 µM; in assay [15], over 10 µM. For the same molecule, the inhibition in assay [16] was determined as 7%; in [17], 15%; in assay [18], 10.5%. In addition, the Activity was 5% in [19], 6% in [20] and -2% in assay [21].
As for `C/C=C/Cn1cc(-c2ccc(C(=O)N3CCOCC3)cc2)c2cc[nH]c2c1=O`, the IC50 in [1], in assay [2], in assay [3], in [4], in assay [5] and in [6] was 20 µM each time. Besides, the IC50 in [7], in assay [8], in assay [9], in [10] and in assay [11] was 20 µM throughout. In addition, the Kd in [12] is 6.3 µM; in assay [13], 6.6 µM; in assay [14], over 10 µM; in assay [15], 0.31 µM. For the same molecule, the figures for the inhibition in assay [16], in assay [17] and in assay [18] were 3.4%, 4.4% and 4.8%, respectively. Moreover, the results for the Activity in [19], in assay [20] and in assay [21] were 1%, -3% and 22%, respectively.
Consider `C/C=C/Cn1cc(-c2cc(OC)c(C(=O)N3CCOCC3)cc2OC)c2cc(C)[nH]c2c1=O`, for which the IC50 in [1], in assay [2], in assay [3], in assay [4], in assay [5] and in assay [6] was 2 µM each time. In addition, the IC50 in assay [7], in [8], in assay [9], in assay [10] and in assay [11] was 2 µM throughout. Also, the Kd in assay [12], in assay [13], in assay [14] and in [15] was over 10 µM throughout. For the same molecule, the inhibition is -7.5% in [16], 6% in assay [17] and 0% in assay [18]. Further, the results for the Activity in [19], in [20] and in [21] were -1%, 13% and 6%, respectively.
In the case of `C/C=C/Cn1cc(-c2cc(OC)c(C(C)(C)O)cc2OC)c2cc(C)[nH]c2c1=O`, the Kd was 9.2 µM in [12], over 10 µM in [13], over 10 µM in [14] and over 10 µM in [15].
